These results are taken from patent US9828375B2, “4-position substituted pyrazolopyrimidine derivative, and use thereof in drug preparation” (Guangxi Wuzhou Pharmaceuticals (Group) Co., Ltd., priority 2012, dated 2017).

This experiment has as its target T1, FLT3 (Homo sapiens, UniProt P36888).
T1 sequence (P36888 27-993): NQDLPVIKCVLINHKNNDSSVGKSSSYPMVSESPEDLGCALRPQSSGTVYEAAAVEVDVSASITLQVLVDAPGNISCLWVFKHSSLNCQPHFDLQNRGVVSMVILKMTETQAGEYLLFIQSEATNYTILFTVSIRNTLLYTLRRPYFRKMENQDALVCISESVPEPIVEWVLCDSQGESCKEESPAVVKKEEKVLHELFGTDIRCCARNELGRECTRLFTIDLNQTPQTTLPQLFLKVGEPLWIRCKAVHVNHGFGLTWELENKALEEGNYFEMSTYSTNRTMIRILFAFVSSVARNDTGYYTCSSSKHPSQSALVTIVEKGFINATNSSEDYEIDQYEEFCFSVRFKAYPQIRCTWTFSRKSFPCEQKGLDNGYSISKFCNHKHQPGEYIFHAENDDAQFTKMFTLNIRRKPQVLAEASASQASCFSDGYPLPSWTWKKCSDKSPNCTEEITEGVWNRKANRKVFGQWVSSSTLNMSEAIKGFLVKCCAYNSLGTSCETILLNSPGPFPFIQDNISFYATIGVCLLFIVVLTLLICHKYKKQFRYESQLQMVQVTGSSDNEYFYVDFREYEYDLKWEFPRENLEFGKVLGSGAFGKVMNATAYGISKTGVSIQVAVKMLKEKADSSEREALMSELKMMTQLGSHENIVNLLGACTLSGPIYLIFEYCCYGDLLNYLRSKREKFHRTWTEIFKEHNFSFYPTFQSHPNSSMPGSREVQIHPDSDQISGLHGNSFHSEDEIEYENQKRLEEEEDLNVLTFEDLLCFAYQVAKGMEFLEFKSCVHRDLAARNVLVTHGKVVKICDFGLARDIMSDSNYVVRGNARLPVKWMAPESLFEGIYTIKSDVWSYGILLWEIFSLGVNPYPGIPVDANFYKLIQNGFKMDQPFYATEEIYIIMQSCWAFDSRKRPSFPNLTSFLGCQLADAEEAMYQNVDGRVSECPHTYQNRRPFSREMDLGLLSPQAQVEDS
Briefly: Kinase inhibition activity test, isotope labeling (γ-33P-ATP): FLT3. It is filed as biochemical. The conditions noted are these: for IC50: ATP 200 μM, read-out: FLT3 IC50 value (inhibitory activity value); for Activity inhibition rate Flt3 (h) / inhibition at 10 µM: test compound at a concentration of 10 μM; for inhibition at 10 µM: read-out: Activity inhibition rate Flt3 (h). As for the experimental part:
The purpose of this experiment was to test the inhibitory activity of the compound of the invention for in vitro kinase with the isotope labeling method (the γ phosphate group on ATP was labeled). In this experiment, the in vitro activity inhibition of such kinases as FLT3, VEGFR2, FLT1, FLT4, RET, c-RAF, B-RAF, c-KIT, PDGFα, PDGFβ, FGFR2, FGFR1, EphA2, EphB2, SRC, ABL, ALK and Met was tested respectively. Staurosporine was reference molecule (or referred to as positive control). The kinase inhibition activity of the test compound was expressed by half-inhibitory concentration (IC50) or the kinase activity inhibition rate of the test compound at a concentration of 10 μM. The IC50 value could be obtained by calculating the kinase activity inhibition rate of the test compound at different concentrations.
20 mM 3-(N-morpholinyl)propanesulfonic acid (MOPS); 1 mM ethylenediaminetetraacetic acid (EDTA), 0.01% Brij 35 (Brij-35), 5% glycerol, 0.1% mercaptoethanol, 1 mg/mL bovine serum albumin (BSA), 10 mM manganous dichloride solution (MnCl2), 0.1 mg/mL glutamic acid/tyrosine (4:1) polypeptide (poly(Glu, Tyr)4:1), 50 μM EAIYAAPFAKKK (substrate of FLT3), 0.33 mg/mL myelin basic protein (substrate of VEGFR2), 250 μM KKKSPGEYVNIEFG (substrate of FLT1(h)), 500 μM GGEEEEYFELVKKKK (substrate of FLT4(h)), 250 μM KKKSPGEYVNIEFG (substrate of RET), 0.66 mg/mL myelin basic protein (substrate of C-RAF), 250 μM GGMEDIYFEFMGGKKK (substrate of c-Kit), 250 μM GGMEDIYFEFMGGKKK (substrate of PDGFα), 250 μM KKKSPGEYVNIEFG (substrate of FGFR1), […] GGEEEEYFELVKKKK (substrate of SRC), 50 μM EAIYAAPFAKKK (substrate of ABL), 250 μM KKKSPGEYVNIEFG (substrate of ALK), 250 μM KKKSPGEYVNIEFG (substrate of Met(h)), 10 mM magnesium acetate and γ-^33 P-ATP solution, stop buffer (3% phosphate buffer), washing buffer (75 mM phosphate solution), methanol, Filtermat A membrane, FLT3, VEGFR2, FLT3, VEGFR2, FLT1, FLT4, RET, c-RAF, B-RAF, c-KIT, PDGFRα, PDGFRβ, FGFR2, FGFR1, EphA2, EphB2, SRC, ABL, ALK, Met and other kinases, and the test compounds.
Buffers (8 mM MOPS with pH value of 7.0, 0.2 mM EDTA and 10 mM MnCl2), (5-10 mU) kinases to be tested (FLT3, VEGFR2, FLT1, FLT4, RET, c-RAF, B-RAF, c-KIT, PDGFRα, PDGFRβ, FGFR2, FGFR1, EphA2, EphB2, SRC, ABL, ALK and Met), substrates of kinases to be tested (refer to experimental materials), 10 mM magnesium acetate and γ-^33 P-ATP solution, and test compounds at different concentrations were added to a reaction tube orderly. […] Reaction was terminated with 5 μL 3% phosphate buffer finally, and 10 μL reaction solution was titrated to the Filtermat A membrane; solution was washed for 3 times with 75 mM phosphate solution with each time lasting 5 minutes, and then washed once with methanol. Finally, the Filtermat A membrane was dried, and scintillation counting was performed on the membrane, with scintillation count reflecting the phosphorylation degree of the substrates, so that the activity inhibition of kinase could be characterized.

As to “1-(4-((1H-pyrazolopyrimidine-4-yl)oxy)-3-fluorophenyl)-3-(3-trifluoromethoxy)phenyl)urea [4a-8]”, the IC50 stood at 0.038 µM and the “Activity inhibition rate Flt3 (h)” value came to 100%.
“1-(4-((1H-pyrazolopyrimidine-4-yl)oxy)phenyl)-3-(methylcyclohexyl)urea [4a-20]”: the “Activity inhibition rate Flt3 (h)” value stood at 66%.
Regarding `O=C(Nc1ccc(Oc2ncnc3[nH]ncc23)cc1)Nc1ccc(C(F)(F)F)cc1` [4a-1], the IC50 was determined as 0.027 µM and the inhibition at 10 µM turned out to be 100%.
As for `O=C(Nc1ccc(Oc2ncnc3[nH]ncc23)cc1)Nc1ccc(Cl)c(C(F)(F)F)c1` [4a-2], the half-inhibitory concentration (IC50) came to 0.039 µM and the “Activity inhibition rate Flt3 (h)” value amounted to 100%.
In the case of `O=C(Nc1ccc(Oc2ncnc3[nH]ncc23)cc1)Nc1cccc(C(F)(F)F)c1` [4a-6], the concentration for half-maximal inhibition (IC50) was found to be 0.009 µM and the inhibition at 10 µM came to 100%.
As to `CC(C)c1cccc(NC(=O)Nc2ccc(Oc3ncnc4[nH]ncc34)c(F)c2)c1` [4a-7, 1-(4-((1H-pyrazolopyrimidine-4-yl)oxy)-3-fluorophenyl)-3-(3-isopropylphenyl)urea], the concentration for half-maximal inhibition (IC50) turned out to be 0.036 µM and the “Activity inhibition rate Flt3 (h)” value is given as 100%.
The matching figures for `O=C(Nc1ccc(C(F)(F)F)cc1)Nc1ccc(Oc2ncnc3[nH]ncc23)c(F)c1` [4a-9, 1-(4-((1H-pyrazolopyrimidine-4-yl)oxy)-3-fluorophenyl)-3-(4-(trifluoromethyl)phenyl)urea]: 0.018 µM and 100%.
The matching figures for `O=C(Nc1ccc(Oc2ncnc3[nH]ncc23)c(F)c1)Nc1ccc(Cl)c(C(F)(F)F)c1` [4a-10, 1-(4-((1H-pyrazolopyrimidine-4-yl)oxy)-3-fluorophenyl)-3-(4-chloro-3-(trifluoromethyl)phenyl)urea]: 0.025 µM and 100%.
On the same counts, the results for `O=C(Nc1ccc(Oc2ncnc3[nH]ncc23)cc1)Nc1cc(C(F)(F)F)cc(C(F)(F)F)c1` [4a-12, 1-(4-((1H-pyrazolopyrimidine-4-yl)oxy)phenyl)-3-(3,5-bis(trifluoromethyl)phenyl)urea] are 0.061 µM and 100%.
For the molecule `O=C(Nc1ccc(Oc2ncnc3[nH]ncc23)cc1)Nc1ccc(C(F)(F)F)cc1Cl` [4a-13], the half-maximal inhibitory concentration (IC50) is 0.024 µM and the “Activity inhibition rate Flt3 (h)” value is recorded as 100%.
The matching figures for `O=C(Nc1ccccc1)Nc1ccc(Oc2ncnc3[nH]ncc23)cc1` [4a-15, 1-(4-((1H-pyrazolopyrimidine-4-yl)oxy)phenyl)-3-phenylurea]: 0.089 µM and 100%.
For `O=C(Nc1ccc(Oc2ncnc3[nH]ncc23)cc1)Nc1ccc(N2CCOCC2)cc1` [4a-16, 1-(4-((1H-pyrazolopyrimidine-4-yl)oxy)phenyl)-3-(4-morpholinylphenyl)urea], the inhibition at 10 µM was found to be 76%.
For `C[C@H](NC(=O)Nc1ccc(Oc2ncnc3[nH]ncc23)cc1)c1ccccc1` [4a-18, (S)-1-(4-((1H-pyrazolopyrimidine-4-yl)oxy)phenyl)-3-(1-phenethyl)urea], the “Activity inhibition rate Flt3 (h)” value came out at 81%.
Same read-out and setting: in the case of `C[C@@H](NC(=O)Nc1ccc(Oc2ncnc3[nH]ncc23)cc1)c1ccccc1` [4a-19, (R)-1-(4-((1H-pyrazolopyrimidine-4-yl)oxy)phenyl)-3-(1-phenethyl)urea] it was 73%.
As to `CC(C)(C)c1cc(NC(=O)Nc2ccc(Oc3ncnc4[nH]ncc34)cc2)n(-c2ccccc2)n1` [4a-24], the IC50 was 0.017 µM and the “Activity inhibition rate Flt3 (h)” value was found to be 100%.
For `CC(C)(C)c1cc(NC(=O)Nc2ccc(Oc3ncnc4[nH]ncc34)cc2)on1` [4a-25], the IC50 came out at 0.016 µM and the “Activity inhibition rate Flt3 (h)” value was found to be 100%.
For `CC(C)(C)c1cc(NC(=O)Nc2ccc(Oc3ncnc4[nH]ncc34)cc2)no1` [4a-26], the concentration for half-maximal inhibition (IC50) was 0.008 µM and the inhibition at 10 µM was found to be 100%.
On to `O=C(Nc1ccc(Oc2ncnc3[nH]ncc23)cc1)Nc1cc(C(F)(F)F)on1` [4a-28], for which the inhibition at 10 µM came out at 100%.
With `CC(C)(C)c1cc(NC(=O)Nc2ccc(Oc3ncnc4[nH]ncc34)c(F)c2)no1` [4a-31], the IC50 was found to be 0.005 µM and the “Activity inhibition rate Flt3 (h)” value is on record as 100%.
On to `O=C(Nc1cccc(Nc2ncnc3[nH]ncc23)c1)Nc1ccc(F)c(Cl)c1` [4b-1], for which the inhibition at 10 µM is 30%.
For `C[C@@H](NC(=O)Nc1ccc(Nc2ncnc3[nH]ncc23)cc1)c1ccccc1` [4b-2, (R)-1-(4-(1H-pyrazolopyrimidine-4-amido)phenyl)-3-(1-phenethyl)urea], the “Activity inhibition rate Flt3 (h)” value (10 µM) is 0%.
On to `COc1cccc(NC(=O)Nc2ccc(Nc3ncnc4[nH]ncc34)cc2)c1` [4b-3], for which the inhibition at 10 µM was 72%.
Consider `C[C@H](NC(=O)Nc1ccc(Nc2ncnc3[nH]ncc23)cc1)c1ccccc1` [4b-4], for which the “Activity inhibition rate Flt3 (h)” value (10 µM) is recorded as 59%.
For the molecule `O=C(Nc1ccc(NC(=O)N2C=NC=C3NNC=C32)cc1)Nc1ccc(Cl)c(C(F)(F)F)c1` [4b-5, 1-(4-(1H-pyrazolopyrimidine-4-amido)phenyl)-3-(4-chloro-3-(trifluoromethyl)phenyl)urea], the inhibition at 10 µM amounted to 95%.
Still for that read-out and setting: to `COc1ccc(NC(=O)Nc2ccc(NC(=O)N3C=NC=C4NNC=C43)cc2)cc1` [4b-6, 1-(4-(1H-pyrazolopyrimidine-4-amido)phenyl)-3-(4-methoxyphenyl)urea] belongs 81%; to `Cc1cc(C)c(NC(=O)Nc2ccc(NC(=O)N3C=NC=C4NNC=C43)cc2)c(C)c1` [4b-7, 1-(4-(1H-pyrazolopyrimidine-4-amido)phenyl)-3-(2,4,6-trimethylphenyl)urea], 91%; to `O=C(Nc1ccc(Sc2ncnc3[nH]ncc23)cc1)Nc1ccc(C(F)(F)F)cc1` [4c-1], over 90%.
With `O=C(Nc1ccc(Sc2ncnc3[nH]ncc23)cc1)Nc1cccc(C(F)(F)F)c1` [4c-2], the “Activity inhibition rate Flt3 (h)” value is on record as over 90%.
